Consider 26 molecules from US20190367516A1 (Bayer Pharma Aktiengesellschaft, priority 2015, published 2019).

In general, EC50 refers to the midpoint of the concentration-response curve. Higher therefore signals lower potency in that assay.

In one assay the target is T1, human M2 receptor (Homo sapiens, UniProt P08172).
T1 sequence (P08172 1-466): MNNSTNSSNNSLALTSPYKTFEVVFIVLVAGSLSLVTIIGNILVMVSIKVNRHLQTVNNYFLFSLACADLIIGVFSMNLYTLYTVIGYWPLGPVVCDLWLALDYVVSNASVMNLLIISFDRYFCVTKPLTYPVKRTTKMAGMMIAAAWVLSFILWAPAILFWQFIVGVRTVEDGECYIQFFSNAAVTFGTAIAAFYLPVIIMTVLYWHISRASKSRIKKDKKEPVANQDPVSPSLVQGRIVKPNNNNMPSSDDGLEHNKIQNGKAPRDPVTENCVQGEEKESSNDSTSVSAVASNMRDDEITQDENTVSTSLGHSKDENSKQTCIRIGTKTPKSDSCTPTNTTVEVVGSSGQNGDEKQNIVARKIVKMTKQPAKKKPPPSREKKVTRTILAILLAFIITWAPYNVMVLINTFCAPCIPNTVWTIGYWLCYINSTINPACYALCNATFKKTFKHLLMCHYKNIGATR
Conditions: Receptor activity EC50, M2-GIRK1/4 activation test, acetylcholine at EC20; allosteric potency; in some cases mean values from two or more determinations.
In the case of `O=C(NC12CC3CC(CC(C3)C1)C2)c1cn(-c2ccc(F)cc2F)c2nc(N3CCCC(F)(F)C3)ccc2c1=O` [Example 1, 1-(2,4-Difluorophenyl)-7-(3,3-difluoropiperidin-1-yl)-4-oxo-N-(tricyclo[3.3.1.1^3,7]dec-1-yl)-1,4-dihydro-1,8-naphthyridine-3-carboxamide], the 50% effective concentration (EC50) worked out at 14 nM.

In turn, `O=C(NC12CC3CC(CC(C3)C1)C2)c1cn(-c2ccc(F)cc2F)c2nc(N3CCC(F)CC3)ccc2c1=O` [Example 5, 1-(2,4-Difluorophenyl)-7-(4-fluoropiperidin-1-yl)-4-oxo-N-(tricyclo[3.3.1.1^3,7]dec-1-yl)-1,4-dihydro-1,8-naphthyridine-3-carboxamide] had an EC50 of 31 nM.

On to `O=C(NC12CC3CC(CC(C3)C1)C2)c1cn(-c2ccc(F)cc2F)c2nc(N3CCCCC3)ccc2c1=O` [Example 8, 1-(2,4-Difluorophenyl)-4-oxo-7-(piperidin-1-yl)-N-(tricyclo[3.3.1.1^3,7]dec-1-yl)-1,4-dihydro-1,8-naphthyridine-3-carboxamide], for which a half-maximal effect (EC50) was put at 38 nM.

In the case of `NC(=O)N1CCN(c2ccc3c(=O)c(C(=O)NC45CC6CC(CC(C6)C4)C5)cn(-c4ccc(F)cc4F)c3n2)CC1` [Example 12, 7-(4-Carbamoylpiperazin-1-yl)-1-(2,4-difluorophenyl)-4-oxo-N-(tricyclo[3.3.1.1^3,7]dec-1-yl)-1,4-dihydro-1,8-naphthyridine-3-carboxamide], the EC50 turned out to be 64 nM.

The molecule `O=C(NC12CC3CC(CC(C3)C1)C2)c1cn(-c2ccc(F)cc2F)c2nc(N3CCC(F)(CO)CC3)ccc2c1=O` [Example 16, 1-(2,4-Difluorophenyl)-7-[4-fluoro-4-(hydroxymethyl)piperidin-1-yl]-4-oxo-N-(tricyclo[3.3.1.1^3,7]dec-1-yl)-1,4-dihydro-1,8-naphthyridine-3-carboxamide] showed a half-maximal effective concentration (EC50) of 90 nM.

In turn, `O=C(NC12CC3CC(CC(C3)C1)C2)c1cn(-c2ccc(F)cc2F)c2nc(N3CCCC(CCO)C3)ccc2c1=O` (stereo not drawn) [Example 17, 1-(2,4-Difluorophenyl)-7-[3-(2-hydroxyethyl)piperidin-1-yl]-4-oxo-N-(tricyclo[3.3.1.1^3,7]dec-1-yl)-1,4-dihydro-1,8-naphthyridine-3-carboxamide] registered an EC50 of 159 nM.

The molecule `O=C1CN(c2ccc3c(=O)c(C(=O)NC45CC6CC(CC(C6)C4)C5)cn(-c4ccc(F)cc4F)c3n2)CCN1` [Example 18, 1-(2,4-Difluorophenyl)-4-oxo-7-(3-oxopiperazin-1-yl)-N-(tricyclo[3.3.1.1^3,7]dec-1-yl)-1,4-dihydro-1,8-naphthyridine-3-carboxamide] showed an EC50 of 117 nM.

In turn, `CC(C)(NC(=O)c1cn(-c2ccc(F)cc2F)c2nc(N3CC[C@@H](O)C3)ccc2c1=O)c1c(F)cccc1F` [Example 21, 1-(2,4-Difluorophenyl)-N-[2-(2,6-difluorophenyl)propan-2-yl]-7-[(3R)-3-hydroxypyrrolidin-1-yl]-4-oxo-1,4-dihydro-1,8-naphthyridine-3-carboxamide] showed an EC50 of 145 nM.

Consider `CO[C@@H]1CCN(c2ccc3c(=O)c(C(=O)NC(C)(C)c4c(F)cccc4F)cn(-c4ccc(F)cc4F)c3n2)C1` [Example 22, 1-(2,4-Difluorophenyl)-N-[2-(2,6-difluorophenyl)propan-2-yl]-7-[(3R)-3-methoxypyrrolidin-1-yl]-4-oxo-1,4-dihydro-1,8-naphthyridine-3-carboxamide], for which the midpoint of the response, the EC50, lay at 131 nM.

`CC[C@@H](NC(=O)c1cn(-c2ccc(F)cc2F)c2nc(N3CC(F)C3)ccc2c1=O)C(F)(F)F` [Example 32, 1-(2,4-Difluorophenyl)-7-(3-fluoroazetidin-1-yl)-4-oxo-N-[(2R)-1,1,1-trifluorobutan-2-yl]-1,4-dihydro-1,8-naphthyridine-3-carboxamide] returned an EC50 of 173 nM.

Turning to `CN(C)c1ccc2c(=O)c(C(=O)NC34CC5CC(CC(F)(C5)C3)C4)cn(-c3ccc(F)cc3F)c2n1` [Example 37, 1-(2,4-Difluorophenyl)-7-(dimethylamino)-N-(3-fluorotricyclo[3.3.1.1^3,7]dec-1-yl)-4-oxo-1,4-dihydro-1,8-naphthyridine-3-carboxamide], the EC50 stood at 23 nM.

The molecule `CN(C)c1ccc2c(=O)c(C(=O)NC34CC5CC(C3)C(F)(F)C(C5)C4)cn(-c3ccc(F)cc3Cl)c2n1` [Example 40, 1-(2-Chloro-4-fluorophenyl)-N-(4,4-difluorotricyclo[3.3.1.1^3,7]dec-1-yl)-7-(dimethylamino)-4-oxo-1,4-dihydro-1,8-naphthyridine-3-carboxamide] had an EC50 of 106 nM.

For the molecule `CN(C)c1ccc2c(=O)c(C(=O)NC34CC5CC(CC(C)(C5)C3)C4)cn(-c3ccc(F)cc3F)c2n1` [Example 41, 1-(2,4-Difluorophenyl)-7-(dimethylamino)-N-(3-methyltricyclo[3.3.1.1^3,7]dec-1-yl)-4-oxo-1,4-dihydro-1,8-naphthyridine-3-carboxamide], the EC50 was 39 nM.

`CN(C)c1ccc2c(=O)c(C(=O)NC34CCC(C)(CC3)CC4)cn(-c3ccc(F)cc3F)c2n1` [Example 42, 1-(2,4-Difluorophenyl)-7-(dimethylamino)-N-(4-methylbicyclo[2.2.2]oct-1-yl)-4-oxo-1,4-dihydro-1,8-naphthyridine-3-carboxamide] registered an EC50 of 17 nM.

With `CN(C)c1ccc2c(=O)c(C(=O)NC(C)(C)C)cn(-c3ccc(F)cc3F)c2n1` [Example 43, N-tery-Butyl-1-(2,4-difluorophenyl)-7-(dimethylamino)-4-oxo-1,4-dihydro-1,8-naphthyridine-3-carboxamide], the EC50 worked out at 141 nM.

As to `CC[C@H](NC(=O)c1cn(-c2ccc(F)cc2F)c2nc(N(C)C)ccc2c1=O)C(F)(F)F` [Example 45, 1-(2,4-Difluorophenyl)-7-(dimethylamino)-4-oxo-N-[(2S)-1,1,1-trifluorobutan-2-yl]-1,4-dihydro-1,8-naphthyridine-3-carboxamide], the EC50 was 28 nM.

`CN(C)c1ccc2c(=O)c(C(=O)NC34CCC(F)(CC3)CC4)cn(-c3ccc(F)cc3F)c2n1` [Example 47, 1-(2,4-Difluorophenyl)-7-(dimethylamino)-N-(4-fluorobicyclo[2.2.2]oct-1-yl)-4-oxo-1,4-dihydro-1,8-naphthyridine-3-carboxamide]: the EC50 worked out at 43 nM.

`CN(C)c1ccc2c(=O)c(C(=O)NCc3c(Cl)cccc3Cl)cn(-c3ccc(F)cc3F)c2n1` [Example 49, N-(2,6-Dichlorobenzyl)-1-(2,4-difluorophenyl)-7-(dimethylamino)-4-oxo-1,4-dihydro-1,8-naphthyridine-3-carboxamide] displayed an EC50 of 89 nM.

In turn, `CN(C)c1ccc2c(=O)c(C(=O)NCc3ccc(F)cc3F)cn(-c3ccc(F)cc3F)c2n1` [Example 50, N-(2,4-Dmuorobenzyl)-1-(2,4-difluorophenyl)-7-(dimethylamino)-4-oxo-1,4-dihydro-1,8-naphthyridine-3-carboxamide] showed an EC50 of 158 nM.

In turn, `Cc1cccc(C)c1CNC(=O)c1cn(-c2ccc(F)cc2F)c2nc(N(C)C)ccc2c1=O` [Example 51, 1-(2,4-Difluorophenyl)-7-(dimethylamino)-N-(2,6-dimethylbenzyl)-4-oxo-1,4-dihydro-1,8-naphthyridine-3-carboxamide] registered an EC50 of 100 nM.

With `CN(C)c1ccc2c(=O)c(C(=O)Nc3c(F)cccc3F)cn(-c3ccc(F)cc3F)c2n1` [Example 52, 1-(2,4-Difluorophenyl)-N-(2,6-difluorophenyl)-7-(dimethylamino)-4-oxo-1,4-dihydro-1,8-naphthyridine-3-carboxamide], the midpoint of the response, the EC50, lay at 104 nM.

Molecule `CN(C)c1ccc2c(=O)c(C(=O)NC(C)(C)c3c(F)cccc3F)cn(-c3ccc(F)cc3F)c2n1` [Example 53, 1-(2,4-Difluorophenyl)-N-[2-(2,6-difluorophenyl)propan-2-yl]-7-(dimethylamino)-4-oxo-1,4-dihydro-1,8-naphthyridine-3-carboxamide] showed an EC50 of 58 nM.

As for `Cc1cccc(C)c1NC(=O)c1cn(-c2ccc(F)cc2F)c2nc(N(C)C)ccc2c1=O` [Example 54, 1-(2,4-Difluorophenyl)-7-(dimethylamino)-N-(2,6-dimethylphenyl)-4-oxo-1,4-dihydro-1,8-naphthyridine-3-carboxamide], the response was half-maximal at 85 nM (EC50).

The molecule `CN(C)c1ccc2c(=O)c(C(=O)Nc3c(Cl)cccc3Cl)cn(-c3ccc(F)cc3F)c2n1` [Example 55, N-(2,6-Dichlorophenyl)-1-(2,4-difluorophenyl)-7-(dimethylamino)-4-oxo-1,4-dihydro-1,8-naphthyridine-3-carboxamide] yielded an EC50 of 36 nM.

Molecule `O=C(NC12CC3CC(CC(C3)C1)C2)c1cn(-c2ccc(F)cc2F)c2nc(N3CC[C@H](F)C3)ccc2c1=O` [Example 61, 1-(2,4-Difluorophenyl)-7-[(3S)-3-fluoropyrrolidin-1-yl]-4-oxo-N-(tricyclo[3.3.1.1^3,7]dec-1-yl)-1,4-dihydro-1,8-naphthyridine-3-carboxamide] displayed an EC50 of 16 nM.

The same assay, now with this note: Receptor activity EC50, allosteric potency at EC20 acetylcholine; M2-GIRK1/4 reporter cells; in some cases mean of two or more determinations.
`CC(C)C(C)NC(=O)c1cn(-c2c(F)cc(F)cc2F)c2nc(N3C[C@@H](O)CC3=O)ccc2c1=O` (stereo in doubt) [Example 482, 7-[(4S)-4-Hydroxy-2-oxopyrrolidin-1-yl]-N-[(2R)-3-methylbutan-2-yl]-4-oxo-1-(2,4,6-trifluorophenyl)-1,4-dihydro-1,8-naphthyridine-3-carboxamide] registered an EC50 of 13 nM.

Still in this assay, the particulars now being: read-out: Efficiency, boosting of the acetylcholine effect at EC20 acetylcholine concentration; M2-GIRK1/4 reporter cells.
In the case of `CC(C)C(C)NC(=O)c1cn(-c2c(F)cc(F)cc2F)c2nc(N3C[C@@H](O)CC3=O)ccc2c1=O` (stereo in doubt) [Example 482, 7-[(4S)-4-Hydroxy-2-oxopyrrolidin-1-yl]-N-[(2R)-3-methylbutan-2-yl]-4-oxo-1-(2,4,6-trifluorophenyl)-1,4-dihydro-1,8-naphthyridine-3-carboxamide], the Emax was 98.5%.
